According to paper PMC10769324 (bioRxiv, 2024):

What was measured:
5-HT2A [1] = biological target: T1, 5-HT2A (Homo sapiens, UniProt P28223); format: binding; details: [3H]-LSD 0.5 nM, HEK293 membranes; for log(Ki): printed as log(Ki) with negative sign
5-HT2A [2] = biological target: T1, 5-HT2A; details: Gαq dissociation vs β-arrestin2 recruitment, versus 5-HT

T1 sequence (P28223 whole entry): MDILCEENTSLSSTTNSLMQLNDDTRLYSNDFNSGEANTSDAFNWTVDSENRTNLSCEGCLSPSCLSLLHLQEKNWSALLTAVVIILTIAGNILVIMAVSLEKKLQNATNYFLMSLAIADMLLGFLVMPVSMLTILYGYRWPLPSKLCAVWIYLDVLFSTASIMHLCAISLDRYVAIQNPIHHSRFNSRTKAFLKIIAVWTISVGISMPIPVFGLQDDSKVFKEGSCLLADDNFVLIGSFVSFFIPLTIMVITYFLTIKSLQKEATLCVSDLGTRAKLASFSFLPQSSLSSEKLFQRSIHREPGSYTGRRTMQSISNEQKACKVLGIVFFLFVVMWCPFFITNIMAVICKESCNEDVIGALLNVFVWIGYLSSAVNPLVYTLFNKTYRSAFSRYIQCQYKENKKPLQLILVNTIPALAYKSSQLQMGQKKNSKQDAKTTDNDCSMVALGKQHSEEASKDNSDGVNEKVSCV

Structure (SMILES) | Ki (5-HT2A [1]) | log(Ki) (5-HT2A [1]) | Apparent Bias Factor (5-HT2A [2])
CN(C(=O)c1cn[nH]n1)C1CCN(CCc2cccc(Cl)c2Cl)C1 (stereo not shown) [Compound Z7619689892] | 17 nM | −7.78 ± 0.077 | 
COc1ccc(COCCN(C)C(C)Cc2ccc(O)cc2)cc1 (stereo not shown) [Compound Z1441676226] |  | −6.77 ± 0.087 | 
COc1ccccc1CC1CCN(CC(=O)c2cc(C)[nH]c2C)C1 (stereo not shown) [Compound Z7619689903] | 344 nM | −6.46 ± 0.086 | 
Cc1cccc(OCCCC(=O)N2CCNCc3ccccc32)c1 [Compound Z2393190959] |  | −6.51 ± 0.085 | 
O=C(c1cc(C2CCNC2)[nH]n1)N1CCC(c2cccc(Cl)c2)C1 (stereo not shown) [Compound Z3808146201] |  | −6.51 ± 0.096 | 
c1ccc(O[C@H]2CCN(Cc3ccc(-c4ccn[nH]4)o3)C2)cc1 [Compound Z2449215308] | 162 nM | −6.79 ± 0.100 | 
NCCc1c[nH]c2ccc(O)cc12 [serotonin] |  |  | 1.0
Oc1ccc(C2=CCN(CC3CC34CC4)CC2)cc1 (stereo not shown) [Compound Z2945615615] | 24 nM | −7.62 ± 0.104 | 
CC(C)C(N)CCN(C)C(=O)C(=O)Nc1cc2ccccc2cc1Cl (stereo not shown) [Compound Z5247694451] |  | −7.15 ± 0.073 | 
NC1Cc2ccccc2N(Cc2cc(O)cc(Br)c2)C1 (stereo not shown) [Compound Z7619689909] | 72 nM | −7.14 ± 0.078 | 
Clc1ccc(C#CCN2CCCC(c3ccn[nH]3)C2)cc1 (stereo not shown) [Compound Z1348472291] |  | −6.65 ± 0.083 | 
NCC1Cc2cc(F)ccc2N(C(=O)Cc2cc(F)ccc2Br)C1 (stereo not shown) [Compound Z7704262288] | 15 nM |  | 
C=C/C=C/CCN1CCC(O)(c2cccc(Br)c2)C1 (stereo not shown) [Compound Z5247693129] |  | −6.49 ± 0.094 | 
CCN(Cc1cc(Br)ccc1O)C(=O)C(N)Cc1ccco1 (stereo not shown) [Compound Z3865153101] | 114 nM | −6.94 ± 0.099 | 
C=CCNC(=O)C(C)N1CCCC(c2ccc(O)cc2)C1 (stereo not shown) [Compound Z3517963976] | 113 nM | −6.95 ± 0.085 | 
